Test results reported in US20050079495A1, “Modified tachykinin receptors” (priority 2000, published 2005).

Columns and labels:
[1] = test system: functional G-protein Ca^2+ linked pathway; test: Fura-2 calcium imaging, UTP challenge of COS-7 cells; format: cell-based, monkey; settings: UTP 3μM, 1 min
Experimental: Coverslips containing cells were prepared and maintained as described. Cultured cells were washed twice in a Krebs-Hepes extra-cellular medium buffer (EM, composition in mM: NaCl 118, KCl 4.7, MgSO4 1.2, CaCl2 1.2, KH2PO4 1.2, Hepes 10, glucose 11 and BSA 0.1%, (pH 7.2 at 20° C., (Rossant, et al Endocrinology, 140, 1525-1536), and then loaded with Fura-2 (Rossant, et al Endocrinology, 140, 1525-1536) by incubation for 3 h at 20° C. with EM containing Fura-2-AM (2 μM, Molecular Probes). This procedure enables the cells to load with Fura-2-AM, which becomes hydrolysed to the free acid form once inside the intact cells. After loading, coverslips were mounted into imaging chambers and perfused with EM to remove extra-cellular Fura-2-AM and to allow hydrolysis of intracellular Fura-2-AM to occur. Measurements of changes in the free [Ca^2+]i in individual cells were made from the fluorescence ratio (excitations 340 nm/380 nm, emission >510 nm) using a Spectral Wizard monochromator, cooled integrating CCD camera and a dedicated suite of software (Merlin, Life Sciences Resources, Cambridge, UK). Data are expressed as ratio units 340/380.
Genes encoding wild type sense, wild type anti-sense and variant NK-1 receptors described above were transiently transfected into COS-7 (monkey kidney) cell lines.

[2] = test system: wild type anti-sense transfected COS-7 cells; test: Fura-2 calcium imaging, COS-7 cells transfected with wild type anti-sense construct (negative control); format: cell-based, monkey; settings: COS-7 cells expressing wild type anti-sense, substance P 1 nM
Experimental: The resulting cDNA was excised from the parental vector, spliced into a mammalian expression vector, pCMV3.1 (Invitrogen). This cDNA was in an orientation which allowed expression of the hNK-1vR polypeptide. Stock plasmid was prepared by amplification in E. coli and the plasmid DNA subsequently purified using a Qiagen endonuclease free DNA preparation kit, and the fidelity of the construct confirmed by DNA sequencing. The nucleic acid sequence of the cDNA is SEQ ID N^o6 (FIG. 2) and the translated protein sequence is SEQ ID N^o5 (FIG. 1). Similarly control (negative control) constructs were prepared whereby wild type and variant HNK-1R cDNA was spliced into the vector in an opposite configuration to that described above. A further control (positive control) was prepared by ligation of the parental wild type hNK-1R cDNA into the vector in a manner which would allow hNK-1R polypeptide to be expressed. […]
Coverslips containing cells were prepared and maintained as described. […] Measurements of changes in the free [Ca^2+]i in individual cells were made from the fluorescence ratio (excitations 340 nm/380 nm, emission >510 nm) using a Spectral Wizard monochromator, cooled integrating CCD camera and a dedicated suite of software (Merlin, Life Sciences Resources, Cambridge, UK). Data are expressed as ratio units 340/380. […]

Molecule | [Ca^2+]i response to UTP challenge [1] | Ca^2+ response to substance P challenge [2]
O=c1ccn([C@@H]2O[C@H](COP(=O)(O)OP(=O)(O)OP(=O)(O)O)[C@@H](O)[C@H]2O)c(=O)[nH]1 [UTP] | caused a [Ca^2+]i response | 
H-Arg-Pro-Lys-Pro-Gln-Gln-Phe-Phe-Gly-Leu-Met-NH2 [substance P] |  | failed to invoke a Ca^2+ response
